Source: patent US20200352905A1, “6-(2,4-DICHLOROPHENYL)-5-[4-[(3S)-1-(3-FLUOROPROPYL)PYRROLIDIN-3-YL]OXYPHENYL]-8,9-DIHYDRO-7H-BENZO[7]ANNULENE-2-CARBOXYLIC ACID FOR USE IN METASTATIC OR ADVANCED BREAST CANCER PATIENTS” (SANOFI, priority 2019, published 2020)
Read-outs that look alike come from different tables or passages of the source.

Assay: TED14856 Part A: plasma pharmacokinetics of compound (1)
Type: in vivo, human

SMILES: O=C(O)c1ccc2c(c1)CCCC(c1ccc(Cl)cc1Cl)=C2c1ccc(O[C@H]2CCN(CCCF)C2)cc1 [compound (1), 6-(2,4-dichlorophenyl)-5-[4-[(3S)-1-(3-fluoropropyl)pyrrolidin-3-yl]oxyphenyl]-8,9-dihydro-7H-benzo[7]annulene-2-carboxylic acid]
- variability of exposure parameters (average CV) (after repeated administrations): ~45%
- total variability of exposure parameters (average CV) (after single dose administration): > 60%
- Cmax (female, human, plasma, oral, 20 mg, single 20 mg, Cycle1 Day 1, fasted, N=3, read-out: Cmax (Mean ± SD)): 187 ± 46.7 ng/mL
- Cmax (female, human, plasma, oral, 150 mg, single 150 mg, Cycle1 Day 1, fasted, N=3, read-out: Cmax (Mean ± SD)): 1310 ± 1380 ng/mL
- Cmax (female, human, plasma, oral, 200 mg, single 200 mg, Cycle1 Day 1, fasted, N=4, read-out: Cmax (Mean ± SD)): 1650 ± 1340 ng/mL
- Cmax (female, human, plasma, oral, 400 mg, single 400 mg, Cycle1 Day 1, fasted, N=3, read-out: Cmax (Mean ± SD)): 4740 ± 2920 ng/mL
- Tmax (female, human, plasma, oral, 20 to 600 mg once a day, fasting, Day 1 and Day 22 Cycle 1, read-out: median time to achieve maximum concentration (tmax)): ~3 h
- clearance (female, human, plasma, oral, across the 20-600 mg range, read-out: mean apparent systemic clearance): 233 to 250 mL/min
- Vd (female, human, plasma, oral, across the 20-600 mg range, read-out: mean apparent volume of distribution): ~120 L
- half-life (female, human, plasma, oral, estimated over 48 hours after a single dose on Day 1, read-out: mean apparent terminal half-life): ≥ 8 h
- AUC(0-t) (human, plasma, oral, 20 mg, repeated 20 mg once daily, Cycle1 Day 22, fasted, N=3, read-out: AUC0-24 (Geometric Mean)): 1350 ng·h/mL
- AUC(0-t) (human, plasma, oral, 20 mg, repeated 20 mg once daily, Cycle1 Day 22, fasted, N=3, read-out: AUC0-24 (Mean ± SD)): 1630 ± 1120 ng·h/mL
- Cmax (human, plasma, oral, 20 mg, repeated 20 mg once daily, Cycle1 Day 22, fasted, N=3, read-out: Cmax (Geometric Mean)): 203 ng/mL
- Cmax (human, plasma, oral, 20 mg, repeated 20 mg once daily, Cycle1 Day 22, fasted, N=3, read-out: Cmax (Mean ± SD)): 218 ± 95.3 ng/mL
- Tmax (human, plasma, oral, 20 mg, repeated 20 mg once daily, Cycle1 Day 22, fasted, N=3, read-out: tmax (median)): 2.17 h
- Vd/F (human, plasma, oral, 20 mg, single 20 mg, Cycle1 Day 1, fasted, N = 1, read-out: Vss/F (Geometric Mean)): 81.9 L
- Vd/F (human, plasma, oral, 20 mg, single 20 mg, Cycle1 Day 1, fasted, N = 1, read-out: Vss/F (Mean ± SD)): 81.9 L
- AUC(0-t) (human, plasma, oral, 20 mg, single 20 mg, Cycle1 Day 1, fasted, N=3, read-out: AUC0-24 (Geometric Mean)): 924 ng·h/mL
- Cmax (human, plasma, oral, 20 mg, single 20 mg, Cycle1 Day 1, fasted, N=3, read-out: Cmax (Geometric Mean)): 183 ng/mL
- Tmax (human, plasma, oral, 20 mg, single 20 mg, Cycle1 Day 1, fasted, N=3, read-out: tmax (median)): 1.52 h
- AUC(0-t) (human, plasma, oral, 150 mg, repeated 150 mg once daily, Cycle1 Day 22, fasted, N=2, read-out: AUC0-24 (Geometric Mean)): 15000 ng·h/mL
- AUC(0-t) (human, plasma, oral, 150 mg, repeated 150 mg once daily, Cycle1 Day 22, fasted, N=2, read-out: AUC0-24 (Mean ± SD)): 15900 ng·h/mL
- Cmax (human, plasma, oral, 150 mg, repeated 150 mg once daily, Cycle1 Day 22, fasted, N=2, read-out: Cmax (Geometric Mean)): 2230 ng/mL
- Cmax (human, plasma, oral, 150 mg, repeated 150 mg once daily, Cycle1 Day 22, fasted, N=2, read-out: Cmax (Mean ± SD)): 2390 ng/mL
- Tmax (human, plasma, oral, 150 mg, repeated 150 mg once daily, Cycle1 Day 22, fasted, N=2, read-out: tmax (median)): 2.97 h
- Vd/F (human, plasma, oral, 150 mg, single 150 mg, Cycle1 Day 1, fasted, N = 1, read-out: Vss/F (Geometric Mean)): 61.5 L
- Vd/F (human, plasma, oral, 150 mg, single 150 mg, Cycle1 Day 1, fasted, N = 1, read-out: Vss/F (Mean ± SD)): 61.5 L
- AUC(0-t) (human, plasma, oral, 150 mg, single 150 mg, Cycle1 Day 1, fasted, N=3, read-out: AUC0-24 (Geometric Mean)): 6860 ng·h/mL
- AUC(0-t) (human, plasma, oral, 150 mg, single 150 mg, Cycle1 Day 1, fasted, N=3, read-out: AUC0-24 (Mean ± SD)): 9140 ± 8730 ng·h/mL
- Cmax (human, plasma, oral, 150 mg, single 150 mg, Cycle1 Day 1, fasted, N=3, read-out: Cmax (Geometric Mean)): 884 ng/mL
- Tmax (human, plasma, oral, 150 mg, single 150 mg, Cycle1 Day 1, fasted, N=3, read-out: tmax (median)): 3 h
- AUC(0-t) (human, plasma, oral, 200 mg, repeated 200 mg once daily, Cycle1 Day 22, fasted, N=3, read-out: AUC0-24 (Geometric Mean)): 13400 ng·h/mL
- AUC(0-t) (human, plasma, oral, 200 mg, repeated 200 mg once daily, Cycle1 Day 22, fasted, N=3, read-out: AUC0-24 (Mean ± SD)): 13900 ± 4380 ng·h/mL
- Cmax (human, plasma, oral, 200 mg, repeated 200 mg once daily, Cycle1 Day 22, fasted, N=3, read-out: Cmax (Geometric Mean)): 2030 ng/mL
- Cmax (human, plasma, oral, 200 mg, repeated 200 mg once daily, Cycle1 Day 22, fasted, N=3, read-out: Cmax (Mean ± SD)): 2150 ± 873 ng/mL
- Tmax (human, plasma, oral, 200 mg, repeated 200 mg once daily, Cycle1 Day 22, fasted, N=3, read-out: tmax (median)): 2.07 h
- AUC(0-t) (human, plasma, oral, 200 mg, single 200 mg, Cycle1 Day 1, fasted, N=4, read-out: AUC0-24 (Geometric Mean)): 9760 ng·h/mL
- AUC(0-t) (human, plasma, oral, 200 mg, single 200 mg, Cycle1 Day 1, fasted, N=4, read-out: AUC0-24 (Mean ± SD)): 13600 ± 13800 ng·h/mL
- Cmax (human, plasma, oral, 200 mg, single 200 mg, Cycle1 Day 1, fasted, N=4, read-out: Cmax (Geometric Mean)): 1340 ng/mL
- Vd/F (human, plasma, oral, 200 mg, single 200 mg, Cycle1 Day 1, fasted, N=4, read-out: Vss/F (Geometric Mean)): 173 L
- Vd/F (human, plasma, oral, 200 mg, single 200 mg, Cycle1 Day 1, fasted, N=4, read-out: Vss/F (Mean ± SD)): 213 ± 127 L
- Tmax (human, plasma, oral, 200 mg, single 200 mg, Cycle1 Day 1, fasted, N=4, read-out: tmax (median)): 2.98 h
- AUC(0-t) (human, plasma, oral, 400 mg, repeated 400 mg once daily, Cycle1 Day 22, fasted, N=3, read-out: AUC0-24 (Geometric Mean)): 29500 ng·h/mL
- AUC(0-t) (human, plasma, oral, 400 mg, repeated 400 mg once daily, Cycle1 Day 22, fasted, N=3, read-out: AUC0-24 (Mean ± SD)): 36800 ± 23500 ng·h/mL
- Cmax (human, plasma, oral, 400 mg, repeated 400 mg once daily, Cycle1 Day 22, fasted, N=3, read-out: Cmax (Geometric Mean)): 3370 ng/mL
- Cmax (human, plasma, oral, 400 mg, repeated 400 mg once daily, Cycle1 Day 22, fasted, N=3, read-out: Cmax (Mean ± SD)): 4020 ± 2460 ng/mL
- Tmax (human, plasma, oral, 400 mg, repeated 400 mg once daily, Cycle1 Day 22, fasted, N=3, read-out: tmax (median)): 2.95 h
- AUC(0-t) (human, plasma, oral, 400 mg, single 400 mg, Cycle1 Day 1, fasted, N=3, read-out: AUC0-24 (Geometric Mean)): 37600 ng·h/mL
- AUC(0-t) (human, plasma, oral, 400 mg, single 400 mg, Cycle1 Day 1, fasted, N=3, read-out: AUC0-24 (Mean ± SD)): 40400 ± 17500 ng·h/mL
- Cmax (human, plasma, oral, 400 mg, single 400 mg, Cycle1 Day 1, fasted, N=3, read-out: Cmax (Geometric Mean)): 4120 ng/mL
- Vd/F (human, plasma, oral, 400 mg, single 400 mg, Cycle1 Day 1, fasted, N=3, read-out: Vss/F (Geometric Mean)): 112 L
- Vd/F (human, plasma, oral, 400 mg, single 400 mg, Cycle1 Day 1, fasted, N=3, read-out: Vss/F (Mean ± SD)): 117 ± 40.6 L
- Tmax (human, plasma, oral, 400 mg, single 400 mg, Cycle1 Day 1, fasted, N=3, read-out: tmax (median)): 3 h
- AUC(0-t) (human, plasma, oral, 600 mg, repeated 600 mg once daily, Cycle1 Day 22, fasted, N=3, read-out: AUC0-24 (Geometric Mean)): 41700 ng·h/mL
- AUC(0-t) (human, plasma, oral, 600 mg, repeated 600 mg once daily, Cycle1 Day 22, fasted, N=3, read-out: AUC0-24 (Mean ± SD)): 42700 ± 11200 ng·h/mL
- Cmax (human, plasma, oral, 600 mg, repeated 600 mg once daily, Cycle1 Day 22, fasted, N=3, read-out: Cmax (Geometric Mean)): 5510 ng/mL
- Cmax (human, plasma, oral, 600 mg, repeated 600 mg once daily, Cycle1 Day 22, fasted, N=3, read-out: Cmax (Mean ± SD)): 5570 ± 962 ng/mL
